One data set has as its target T1, Cytochrome P450 4F3 (Homo sapiens, UniProt Q08477).
T1 sequence (Q08477 whole entry): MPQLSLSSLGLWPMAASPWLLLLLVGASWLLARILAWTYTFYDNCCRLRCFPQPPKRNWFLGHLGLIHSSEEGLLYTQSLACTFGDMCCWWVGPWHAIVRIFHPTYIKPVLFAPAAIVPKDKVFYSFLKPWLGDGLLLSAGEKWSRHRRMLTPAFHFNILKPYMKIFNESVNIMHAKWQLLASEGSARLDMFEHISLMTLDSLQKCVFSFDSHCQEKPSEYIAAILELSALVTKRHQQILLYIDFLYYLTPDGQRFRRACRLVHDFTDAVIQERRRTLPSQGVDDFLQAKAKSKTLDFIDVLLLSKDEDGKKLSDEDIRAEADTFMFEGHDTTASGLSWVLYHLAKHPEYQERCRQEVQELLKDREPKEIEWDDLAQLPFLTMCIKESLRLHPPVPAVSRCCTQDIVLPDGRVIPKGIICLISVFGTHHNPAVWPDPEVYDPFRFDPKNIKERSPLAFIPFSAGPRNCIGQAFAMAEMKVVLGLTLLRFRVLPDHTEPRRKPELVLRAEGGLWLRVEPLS
In words: Activity of human recombinant CYP4F3B assessed as enzyme-mediated drug metabolism treated with 25 uM vorapaxar after 120 mins by LC-MS/MS analysis in presence of NADPH. It is filed as ADME. As to conditions: 2 h.

The next data set addresses T2, Cytochrome P450 1A1 (Homo sapiens, UniProt P04798).
T2 sequence (P04798 whole entry): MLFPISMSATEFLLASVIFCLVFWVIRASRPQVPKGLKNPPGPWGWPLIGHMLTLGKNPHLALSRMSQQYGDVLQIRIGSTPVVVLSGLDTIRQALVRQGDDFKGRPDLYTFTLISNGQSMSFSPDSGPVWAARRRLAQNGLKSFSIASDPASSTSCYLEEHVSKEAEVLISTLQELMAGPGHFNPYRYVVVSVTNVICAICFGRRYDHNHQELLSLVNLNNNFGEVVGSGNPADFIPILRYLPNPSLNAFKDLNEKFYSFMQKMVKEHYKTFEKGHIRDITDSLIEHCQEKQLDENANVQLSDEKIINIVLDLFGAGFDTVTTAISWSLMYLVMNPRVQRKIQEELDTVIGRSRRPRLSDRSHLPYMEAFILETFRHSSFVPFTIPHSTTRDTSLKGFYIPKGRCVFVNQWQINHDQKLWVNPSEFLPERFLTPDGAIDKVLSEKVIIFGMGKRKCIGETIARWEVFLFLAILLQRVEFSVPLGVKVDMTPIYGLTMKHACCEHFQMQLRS
As to the kind of experiment: Activity of human recombinant CYP1A1 assessed as enzyme-mediated 2-hydroxyethyl (1R,3aR,4aR,6R,8aR,9S,9aS)-9-((E)-2-(5-(3-fluorophenyl)pyridin-2-yl)vinyl)-1-methyl-3-oxododecahydronaphtho[2,3-c]furan-6-ylcarbamate formation at 25 uM after 120 mins by LC-MS/MS analysis in presence of NADPH. The following applies: 2 h. It is filed as ADME.

Another data set deals with Cytochrome P450 2C8 (Homo sapiens, UniProt P10632). As to the kind of experiment: Activity of human recombinant CYP2C8 assessed as enzyme-mediated 2-hydroxyethyl (1R,3aR,4aR,6R,8aR,9S,9aS)-9-((E)-2-(5-(3-fluorophenyl)pyridin-2-yl)vinyl)-1-methyl-3-oxododecahydronaphtho[2,3-c]furan-6-ylcarbamate formation at 25 uM after 120 mins by LC-MS/MS analysis in presence of NADPH. It is filed as ADME. As to conditions: 2 h.

Another data set addresses Cytochrome P450 2E1 (Homo sapiens, UniProt P05181). In words: Activity of human recombinant CYP2E1 assessed as enzyme-mediated 2-hydroxyethyl (1R,3aR,4aR,6R,8aR,9S,9aS)-9-((E)-2-(5-(3-fluorophenyl)pyridin-2-yl)vinyl)-1-methyl-3-oxododecahydronaphtho[2,3-c]furan-6-ylcarbamate formation at 25 uM after 120 mins by LC-MS/MS analysis in presence of NADPH. It is filed as ADME. The following applies: 2 h.

The next data set has as its target Cytochrome P450 3A4 (Homo sapiens, UniProt P08684). As to the kind of experiment: Activity of human recombinant CYP3A4 assessed as enzyme-mediated (3R,3aS,4S,4aR,7R,8aR,9aR)-7-amino-4-((E)-2-(5-(3-fluorophenyl)pyridin-2-yl)vinyl)-3-methyldecahydronaphtho[2,3-c]furan-1(3H)-one formation assessed per nmol of enzyme at 10 uM after 120 mins by LC-MS/MS analysis in presence of NADPH. It is filed as ADME. The following applies: 2 h.

Data set [1] in a line: Drug metabolism in human liver S9 fraction assessed as (3R,3aS,4S,4aR,7R,8aR,9aR)-7-amino-4-((E)-2-(5-(3-fluorophenyl)pyridin-2-yl)vinyl)-3-methyldecahydronaphtho[2,3-c]furan-1(3H)-one formation at 10 uM after 120 mins by LC-MS/MS analysis. It is filed as ADME, subcellular. The following applies: s9, 2 h.
Another data set has as its target T3, Cytochrome P450 2B6 (Homo sapiens, UniProt P20813).
T3 sequence (P20813 whole entry): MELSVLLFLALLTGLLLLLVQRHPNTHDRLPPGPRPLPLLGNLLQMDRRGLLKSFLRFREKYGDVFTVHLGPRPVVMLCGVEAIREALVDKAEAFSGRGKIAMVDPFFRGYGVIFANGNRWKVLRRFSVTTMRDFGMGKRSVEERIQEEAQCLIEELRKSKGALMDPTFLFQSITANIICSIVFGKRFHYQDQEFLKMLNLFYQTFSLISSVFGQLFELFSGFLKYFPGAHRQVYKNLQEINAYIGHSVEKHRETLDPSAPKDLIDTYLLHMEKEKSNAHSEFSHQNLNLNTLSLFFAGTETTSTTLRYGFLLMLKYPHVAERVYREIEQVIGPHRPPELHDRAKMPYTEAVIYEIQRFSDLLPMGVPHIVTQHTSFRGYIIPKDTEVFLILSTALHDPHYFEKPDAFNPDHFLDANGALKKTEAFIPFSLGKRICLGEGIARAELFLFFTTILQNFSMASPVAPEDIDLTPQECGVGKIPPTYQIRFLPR
As to the kind of experiment: Activity of human recombinant CYP2B6 assessed as enzyme-mediated drug metabolism at 10 uM after 120 mins by LC-MS/MS analysis. It is filed as ADME. The following applies: 2 h.

For data set [2], the system named is Liver microsome. In words: Drug metabolism in human liver microsomes overexpressing CYP3A4 assessed as (3R,3aS,4S,4aR,7R,8aR,9aR)-7-amino-4-((E)-2-(5-(3-fluorophenyl)pyridin-2-yl)vinyl)-3-methyldecahydronaphtho[2,3-c]furan-1(3H)-one formation at 25 uM after 120 mins by LC-MS/MS analysis in presence of tranylcypromine. It is filed as ADME. As to conditions: 2 h.

In data set [3] the test system is Liver microsome. In words: Drug metabolism in human liver microsomes assessed as 2-hydroxyethyl (1R,3aR,4aR,6R,8aR,9S,9aS)-9-((E)-2-(5-(3-fluorophenyl)pyridin-2-yl)vinyl)-1-methyl-3-oxododecahydronaphtho[2,3-c]furan-6-ylcarbamate formation at 25 uM after 120 mins by LC-MS/MS analysis in presence of astemizole. It is filed as ADME. The following applies: 2 h. (Microsomes from liver hold many membrane-bound enzymes, among them those of drug oxidation.)

Another data set addresses CYP2B6 (Homo sapiens, UniProt P20813). In words: Activity of human recombinant CYP2B6 assessed as enzyme-mediated drug metabolism at 10 uM after 120 mins by LC-MS/MS analysis in presence of NADPH. It is filed as ADME. The following applies: read-out: Compound recovery.

Experimental findings from ChEMBL document CHEMBL3526033, “Identification of human liver cytochrome P450 enzymes involved in the metabolism of SCH 530348 (Vorapaxar), a potent oral thrombin protease-activated receptor 1 antagonist” (Drug Metab Dispos, 2011) are described below.

Chain of Cytochrome P450 2E1 (P05181 whole entry): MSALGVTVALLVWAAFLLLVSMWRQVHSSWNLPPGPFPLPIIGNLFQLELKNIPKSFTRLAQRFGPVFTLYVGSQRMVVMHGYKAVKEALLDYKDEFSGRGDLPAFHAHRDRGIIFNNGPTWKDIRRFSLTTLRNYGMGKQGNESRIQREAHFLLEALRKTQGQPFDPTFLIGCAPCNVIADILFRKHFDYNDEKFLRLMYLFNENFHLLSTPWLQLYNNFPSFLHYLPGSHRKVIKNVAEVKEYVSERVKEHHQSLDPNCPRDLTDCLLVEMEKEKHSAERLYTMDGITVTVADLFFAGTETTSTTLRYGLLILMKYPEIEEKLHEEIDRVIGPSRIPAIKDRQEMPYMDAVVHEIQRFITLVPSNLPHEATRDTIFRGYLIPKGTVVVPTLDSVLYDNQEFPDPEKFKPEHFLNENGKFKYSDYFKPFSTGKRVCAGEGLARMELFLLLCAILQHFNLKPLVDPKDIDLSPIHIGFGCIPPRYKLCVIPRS
Chain of Cytochrome P450 2C8 (P10632 whole entry): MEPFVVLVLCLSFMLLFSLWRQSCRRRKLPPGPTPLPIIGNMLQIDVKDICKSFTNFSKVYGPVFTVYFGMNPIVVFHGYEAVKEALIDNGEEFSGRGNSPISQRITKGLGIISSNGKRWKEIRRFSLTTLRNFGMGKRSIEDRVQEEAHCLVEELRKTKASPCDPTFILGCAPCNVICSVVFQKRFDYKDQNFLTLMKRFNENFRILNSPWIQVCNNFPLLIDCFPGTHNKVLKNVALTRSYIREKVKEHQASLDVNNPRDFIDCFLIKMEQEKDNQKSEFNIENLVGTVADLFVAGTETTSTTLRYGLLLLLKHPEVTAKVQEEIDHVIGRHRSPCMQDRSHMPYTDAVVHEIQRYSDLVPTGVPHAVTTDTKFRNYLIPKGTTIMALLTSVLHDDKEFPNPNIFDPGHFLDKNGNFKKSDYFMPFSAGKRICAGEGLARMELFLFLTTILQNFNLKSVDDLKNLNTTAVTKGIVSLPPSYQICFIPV
Chain of Cytochrome P450 3A4 (P08684 whole entry): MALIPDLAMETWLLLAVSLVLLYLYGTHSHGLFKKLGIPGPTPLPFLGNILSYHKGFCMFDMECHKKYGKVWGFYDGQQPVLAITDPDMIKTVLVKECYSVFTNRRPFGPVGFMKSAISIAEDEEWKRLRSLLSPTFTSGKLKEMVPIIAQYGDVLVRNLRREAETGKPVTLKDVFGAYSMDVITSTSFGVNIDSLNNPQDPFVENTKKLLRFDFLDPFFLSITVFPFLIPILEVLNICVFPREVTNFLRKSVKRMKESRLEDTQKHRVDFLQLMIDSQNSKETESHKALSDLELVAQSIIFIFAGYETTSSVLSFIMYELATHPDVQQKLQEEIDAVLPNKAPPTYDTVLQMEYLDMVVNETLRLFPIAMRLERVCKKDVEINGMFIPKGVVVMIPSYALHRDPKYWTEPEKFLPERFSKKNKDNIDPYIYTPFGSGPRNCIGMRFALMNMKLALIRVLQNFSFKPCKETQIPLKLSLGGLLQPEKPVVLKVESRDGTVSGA

On to `C[C@H]1OC(=O)[C@@H]2C[C@@H]3C[C@H](NC(=O)OCCO)CC[C@H]3[C@H](/C=C/c3ccc(-c4cccc(F)c4)cn3)[C@H]12`, for which the Drug metabolism result at Cytochrome P450 4F3 was “metabolite_detected”.

For the compound `CCOC(=O)N[C@@H]1CC[C@@H]2[C@@H](C1)C[C@H]1C(=O)O[C@H](C)[C@H]1[C@H]2/C=[14CH]/c1ccc(-c2cccc(F)c2)cn1`, the Drug metabolism entry at Cytochrome P450 1A1 is given as “metabolite_detected”; at Cytochrome P450 2C8, “metabolite_detected”; on Cytochrome P450 2E1 it was “metabolite_detected”; at Cytochrome P450 3A4, 109.8 pmol/min; in [1], “metabolite_not_detected”; at Cytochrome P450 2B6, “metabolite_not_detected”.

For `CCOC(=O)N[C@@H]1CC[C@@H]2[C@@H](C1)C[C@H]1C(=O)O[C@H](C)[C@H]1[C@H]2/C=C/c1ccc(-c2cccc(F)c2)cn1` [VORAPAXAR], the Drug metabolism result with Liver microsome [2] and in the data set with Liver microsome [3] was “metabolite_not_detected” in each case. Further, the remaining at 2 h, 10 µM on CYP2B6 came out at 97.7%.
